Consider two compounds from publication PMC12446003, “Pharmacological characterization of linaprazan glurate (X842), a novel potassium-competitive acid blocker, in vitro and in vivo” (Frontiers in Pharmacology, 2025).

One series relates to rats. As to the kind of experiment: Toxicity in rats (data to be published). It counts as in vivo.
The next series has as its system dogs. As to the kind of experiment: Toxicity in dogs (data to be published). Type of series: in vivo.
In series [1] the test system is histamine-stimulated acid secretion in pylorus-ligated rats. As to the kind of experiment: Histamine-stimulated acid secretion in pylorus-ligated rat models. It counts as in vivo, Sprague-Dawley rats. The conditions noted are these: histamine 30 mg/kg s.c., pylorus-ligated male rats. As for the experimental part: 1.1 Histamine-stimulated acid secretion in pylorus-ligated rat models
The rats were fasted overnight with ad libitum access to water. Vehicle or X842 (2 mg/kg, 8 mg/kg) was administered orally to male Sprague-Dawley rats using a feeding catheter ina blinded manner. One hour after dosing, the pylorus was ligated under isoflurane anesthesia, and histamine (30 mg/kg/10 mL) was immediately administered subcutaneously. At 3 hours after histamine administration, the rats were sacrificed by carbon dioxide asphyxiation. The gastric contents were collected from the removed stomach. The gastric contents were collected and centrifuged at 3000 rpm for 10 minutes. The volume of each sample was measured, the gastric acid concentration was determined by acid-base titration, and the total acidity was […]
2.Supplementary Figures and Tables
2.1 Supplementary Figures

Series [2] concerns gastric acid secretion in pylorus-ligated rats. As to the kind of experiment: Gastric acid inhibition in pylorus-ligated rats. Type of series: in vivo. As for the experimental part: The rats were fasted overnight with ad libitum access to water. Drugs and vehicle were administered orally to rats in a blinded manner. The pylorus was ligated under ether anesthesia within 1 h after drug and vehicle administration, and the abdomen was closed by suturing. At 4 h after pyloric ligation, the rats were sacrificed by CO2 asphyxiation, and the stomach was removed ([Hori et al., 2010]). The gastric contents were collected and centrifuged at 3,000 rpm for 10 min. The volume of each sample was measured, the gastric acid concentration was determined by acid-base titration, and the total acidity was calculated.

The target of another series is T1, Gastric H+/K+-ATPase (Oryctolagus cuniculus, UniProt P27112).
T1 construct: Gastric H^+/K^+-ATPase was prepared from rabbit glands; from tissue; host or cells: rabbit gastric glands
T1 sequence (P27112 whole entry): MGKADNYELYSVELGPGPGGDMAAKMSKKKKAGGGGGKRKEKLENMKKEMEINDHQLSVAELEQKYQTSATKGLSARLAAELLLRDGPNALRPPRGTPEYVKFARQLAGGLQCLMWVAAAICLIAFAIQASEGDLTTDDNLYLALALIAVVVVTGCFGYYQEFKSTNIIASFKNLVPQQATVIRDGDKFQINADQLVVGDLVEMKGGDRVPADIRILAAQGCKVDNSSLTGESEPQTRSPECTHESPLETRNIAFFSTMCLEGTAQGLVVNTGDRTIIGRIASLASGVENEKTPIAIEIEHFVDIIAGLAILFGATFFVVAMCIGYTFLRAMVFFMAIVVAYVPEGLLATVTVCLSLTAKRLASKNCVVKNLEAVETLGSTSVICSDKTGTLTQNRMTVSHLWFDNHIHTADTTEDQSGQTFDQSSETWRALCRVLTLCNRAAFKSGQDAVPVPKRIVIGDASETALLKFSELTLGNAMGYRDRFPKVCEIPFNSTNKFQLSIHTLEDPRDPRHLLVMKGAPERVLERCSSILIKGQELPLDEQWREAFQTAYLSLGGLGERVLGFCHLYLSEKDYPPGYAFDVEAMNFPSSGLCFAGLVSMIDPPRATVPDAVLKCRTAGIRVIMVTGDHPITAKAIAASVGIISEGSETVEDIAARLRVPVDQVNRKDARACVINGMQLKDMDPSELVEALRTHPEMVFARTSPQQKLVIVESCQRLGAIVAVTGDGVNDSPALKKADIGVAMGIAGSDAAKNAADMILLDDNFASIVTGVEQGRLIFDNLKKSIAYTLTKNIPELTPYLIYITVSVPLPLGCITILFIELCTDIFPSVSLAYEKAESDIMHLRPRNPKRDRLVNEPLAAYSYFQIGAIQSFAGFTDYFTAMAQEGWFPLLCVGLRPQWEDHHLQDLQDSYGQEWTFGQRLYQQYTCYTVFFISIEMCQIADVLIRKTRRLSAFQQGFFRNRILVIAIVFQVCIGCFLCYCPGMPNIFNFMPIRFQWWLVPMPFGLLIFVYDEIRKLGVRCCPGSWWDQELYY
T1 sequence (P18597 whole entry partner): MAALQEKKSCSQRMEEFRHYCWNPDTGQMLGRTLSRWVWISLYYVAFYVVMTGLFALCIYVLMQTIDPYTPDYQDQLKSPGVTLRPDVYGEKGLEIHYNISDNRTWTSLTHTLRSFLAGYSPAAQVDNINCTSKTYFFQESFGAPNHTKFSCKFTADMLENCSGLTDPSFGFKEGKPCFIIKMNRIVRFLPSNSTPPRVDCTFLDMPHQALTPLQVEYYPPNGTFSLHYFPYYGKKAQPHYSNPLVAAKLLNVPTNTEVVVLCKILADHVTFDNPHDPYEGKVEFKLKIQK
The experiment in a line: Inhibition of H+/K+-ATPase activity (Malachite Green Pi assay). It counts as biochemical, rabbit. The procedure:
The H^+/K^+-ATPase inhibition reaction was performed in buffer (50 mM Tris-HCl, 5 mM magnesium chloride, 10 μM valinomycin, pH 6.5) with or without 20 mM potassium chloride (KCl), and inorganic phosphate (Pi) was detected using Malachite Green solution, made from 0.1% malachite green, 1.5% hexaammonium molybdate, and 0.2% Tween-20 in a ratio of 100:25:2 ([Skou, 1982]; [Feng et al., 2011]). Gastric H^+/K^+-ATPase was prepared from rabbit glands, as described previously ([Kondo et al., 2012]; [Arikawa et al., 2012]). The reaction occurred in a 96-well plate with a total volume of 50 µL/well, including buffer, enzyme, ATP, and drug. After 30 min at 37 °C for enzyme stability, ATP was added at 0.2 mM to start the reaction, which was optimized from the titration experiments. The reaction lasted 20 min at 37 °C, followed by the addition of Malachite Green for the colorimetric assay. The enzyme control wells contained the full enzyme system, while the buffer control wells contained only buffer to correct for background values. Absorbance was measured at 620 nm using a plate reader (SpectraMax M5). The inhibition rate was calculated using the following formula, accounting for the enzyme activity in the presence and absence of K^+: Inhibition Rate %=ODwith K+and enzyme,without drug−ODwith K+and enzyme,with drug /ODwith K+and enzyme,without drug−ODwithout K+and enzyme,without drug×100 where “OD with K^+ and enzyme, without drug” is the optical density measured at 620 nm in the presence of K^+ and enzyme, without the tested drug (enzyme control wells); “OD with K^+ and enzyme, with drug” is the optical density measured at 620 nm in the presence of K^+ and enzyme, with the tested drug; and “OD without K^+ and enzyme, without drug” is the optical density measured at 620 nm in the absence of K^+ and enzyme, without the tested drug (buffer control wells).

Another series relates to gastric pH. The experiment in a line: Phase I gastric pH holding time ratio. It counts as in vivo, humans. Conditions: unpublished Phase I data.
A further series has as its system acid secretion. The arrangement: method as in Gedda et al., 2007; Scarpignato and Hunt, 2024. The conditions noted are these: rats; ref Gedda et al., 2007; Scarpignato and Hunt, 2024; cited from earlier work.
The mark [3] stands for this setting: in the presence of K+ (20 mM KCl), pH 6.5, read-out: IC50, H+/K+-ATPase inhibition.
[4] abbreviates: in the presence of potassium ions, rabbit gastric glands, read-out: IC50 (Figure 7A).

Values joined by “and” are separate entries in the source; they are usually repeats but may differ in a detail not shown here. Equal values may be shown once. Read-outs that look alike come from different tables or passages of the source.

`Cc1cccc(C)c1CNc1cc(C(=O)NCCOC(=O)CCCC(=O)O)cn2c(C)c(C)nc12` [X842, linaprazan glurate]: the “Adverse effects (acute, reproductive, teratogenic, carcinogenic toxicity)” value in the series on rats and in the series with dogs was “No significant adverse effects” each time. Moreover, the “Total acidity inhibitory rate (%)” value was determined as 66% in series [1] (oral 2 mg/kg); 71% in series [1] (oral 8 mg/kg); 6% in series [2] (oral 0.15 mg/kg, pylorus-ligated rats (not significant)); 44% in series [2] (oral 0.5 mg/kg, pylorus-ligated rats); 61% in series [2] (oral 1.0 mg/kg, pylorus-ligated rats); 85% in series [2] (oral 1.5 mg/kg, pylorus-ligated rats). Further, the “Duration of acid suppression” value in series [2] (after a single oral dose) is listed as “at least 24 h”. Also, the “Dose required for 50% inhibition (ID50)” value in series [2] (oral, pylorus-ligated rats, total gastric acid) is 0.55 mg/kg. Also, the “Inhibitory effect on H+/K+-ATPase in the absence of K+” value on Gastric H+/K+-ATPase is “No measurable inhibitory effect”. Besides, the “Fold lower inhibitory activity against H+/K+-ATPase compared with linaprazan” value on Gastric H+/K+-ATPase (in the presence of K+) is recorded as around 10 fold. Also, the IC50 at Gastric H+/K+-ATPase (setting [3]) and on Gastric H+/K+-ATPase (setting [4]) was 0.436 µM in each case. Also, the “Gastric pH ≥4 holding time ratio (HTR)” value in the series on gastric pH (oral doses ≥50 mg, throughout the 24-h period) was above 50%. The “Gastric pH ≥4 holding time ratio (HTR), nocturnal” value with gastric pH (oral doses ≥100 mg, nocturnal periods (12–24 h)) was above 50%.

Take `Cc1cccc(C)c1CNc1cc(C(=O)NCCO)cn2c(C)c(C)nc12` [linaprazan]: in the series on acid secretion, the “Duration of inhibitory effect on acid secretion” value was 24 h. The “Inhibitory effect on H+/K+-ATPase in the absence of K+” value at Gastric H+/K+-ATPase is given as “No measurable inhibitory effect”. In addition, the IC50 is 0.04 µM and 0.0402 µM at Gastric H+/K+-ATPase (setting [3]); 0.0402 µM at Gastric H+/K+-ATPase (setting [4]).
